Entries after “also recorded” stand apart in the source; their conditions may differ.
Key:
[1] = target: tau fibrils (Homo sapiens, UniProt P10636); assay: Competition binding assay against [^3H]PiB, tau fibrils
Procedure: Recombinant tau monomer (R&D systems, Minneapolis, MN, USA) was dissolved in 20 mM of Tris HCl, pH 8.0, 100 mM of NaCl, 25 μM of low-MW heparin, and 0.5 mM of dithiothreitol to a final concentration of 300 µg/mL. The mixture was incubated with shaking at 900 rpm at 37 °C for 48 h. To separate the non-aggregated monomers from the formed fibrils, the reaction mixture was centrifuged at 12,000× g for 5 min, and the resulting pellet was washed three times with 500 μL of 20 mM Tris-HCl, pH 7.4. The supernatants from the three centrifugation steps were combined, and the concentration of the monomer in the resulting supernatant was determined in a BCA assay(Thermo Fisher Scientific, Waltham, MA, USA) (with a BSA standard curve). Determination of the concentration of fibrils formed was carried out by subtracting the amount of tau peptide monomer in the supernatant from the initial amount used for fibrillation. The pellets of the fibrils obtained above (Section 4.2.1) were resuspended in 20 mM of Tris-HCl, pH 7.4 and diluted as needed for the binding assays. A fixed concentration of [^3H]DCVJ (10 nM) and α-synuclein aggregates (125 nM), prepared as described above (Section 4.2.3), was used with different final concentrations of the DABTAs from 0.01 to 100 nM (see SI Figure S1). The experiment was carried out in quintuplicate for each concentration. The mixture was incubated for 2 h in a final volume of 200 μL per well after dilution with 20 mM of Tris-HCl, pH 7.4. The incubated mixtures were filtered through a Perkin Elmer GF/B glass filter via a TOMTEC cell harvester and immediately washed thrice with 1 mL of deionized water. The filters containing the bound ligands were dried and afterwards mixed with 3 mL of BetaPlate Scint solution (Perkin Elmer Life Sciences, Waltham, MA, USA) and left there for 2 h before counting in a Wallac 1450 MicroBeta TriLux Liquid Scintillation Counter (PerkinElmer Life Sciences, Waltham, MA, USA). For the determination of the inhibition constants, data were analyzed using GraphPad Prism software (version 7.0) to obtain IC50 values by fitting the data to the equation Y = bottom + (top − bottom)/(1 + 10(x − log IC50)). Ki values were calculated from IC50 values using the equation Ki = IC50/(1 + [radioligand]/Kd). […] Further protocol was carried out as for [^3H]DCVJ (see SI Figure S3). […] Further procedures followed the same already described in Section 4.2.3.1 (See SI Figure S4).

[2] = target: T1, recombinant α-syn fibrils (Homo sapiens, UniProt P37840); assay: Competition binding assay against [^3H]DCVJ, α-syn fibrils; conditions: for Selectivity Aβ/α-syn / Selectivity tau/α-syn: ratio of Ki, [^3H]DCVJ was used; for Ki: [^3H]DCVJ was used (10 nM), α-synuclein aggregates 125 nM
T1 construct: made in house
Procedure: The incubation of purified recombinant α-synuclein monomer (10 mg/mL) obtained as described by Uzuegbunam was carried out in PBS (pH 7.4) at 37 °C. The solution was left shaking at 900 rpm in an Eppendorf Thermomixer for up to 84 h. Determination of the concentration of the formed fibrils (α-syn) was carried out following the centrifugation of the reaction vial at 12,000× g for 5 min. The pellet obtained was washed thrice with 20 mM of Tris-HCl, pH 7.4. The supernatants from the three centrifugation steps were combined, and the concentration of the monomer in the resulting supernatant was determined in a BCA assay (Thermo Fisher Scientific, Waltham, MA, USA) (with a BSA standard curve). Determination of the concentration of α-syn was carried out by subtracting the amount of α-synuclein monomer in the supernatant from the initial amount used for fibrillation.
(§1) The pellets of the fibrils obtained above (Section 4.2.1) were resuspended in 20 mM of Tris-HCl, pH 7.4 and diluted as needed for the binding assays.
(§2) A fixed concentration of [^3H]DCVJ (10 nM) and α-synuclein aggregates (125 nM), prepared as described above (Section 4.2.3), was used with different final concentrations of the DABTAs from 0.01 to 100 nM (see SI Figure S1). The experiment was carried out in quintuplicate for each concentration. The mixture was incubated for 2 h in a final volume of 200 μL per well after dilution with 20 mM of Tris-HCl, pH 7.4. The incubated mixtures were filtered through a Perkin Elmer GF/B glass filter via a TOMTEC cell harvester and immediately washed thrice with 1 mL of deionized water. The filters containing the bound ligands were dried and afterwards mixed with 3 mL of BetaPlate Scint solution (Perkin Elmer Life Sciences, Waltham, MA, USA) and left there for 2 h before counting in a Wallac 1450 MicroBeta TriLux Liquid Scintillation Counter (PerkinElmer Life Sciences, Waltham, MA, USA). For the determination of the inhibition constants, data were analyzed using GraphPad Prism software (version 7.0) to obtain IC50 values by fitting the data to the equation Y = bottom + (top − bottom)/(1 + 10(x − log IC50)). Ki values were calculated from IC50 values using the equation Ki = IC50/(1 + [radioligand]/Kd). […] Further protocol was carried out as for [^3H]DCVJ (see SI Figure S3).

[3] = target: T2, Aβ1−42 fibrils (Homo sapiens, UniProt P05067); assay: Competition binding assay against [^3H]PiB, Aβ1−42 fibrils; conditions: read-out: Ki Aβ
T2 construct: 1 mg of β-amyloid1–42 peptide (Abcam, Cambridge, UK); purchased Abcam
T2 sequence (P05067 672-713): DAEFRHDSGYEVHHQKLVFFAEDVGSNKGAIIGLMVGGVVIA
Procedure: After the dissolution of 1 mg of β-amyloid1–42 peptide (Abcam, Cambridge, UK) in 50 μL of DMSO, 925 μL of Milli-Q® water was added to it, and the mixture was stirred. Finally, 25 μL of 1M Tris HCl, pH 7.4 was added to bring the final peptide concentration to 1 mg/mL. The mixture was then left to incubate at 37 °C for 30 h with shaking at 900 rpm. To separate the non-aggregated monomers from the formed fibrils, the reaction mixture was centrifuged at 12,000× g for 5 min, and the resulting pellet was washed three times with 500 μL of 20 mM Tris-HCl, pH 7.4. The supernatants from the three centrifugation steps were combined, and the concentration of the monomer in the resulting supernatant was determined in a BCA assay (Thermo Fisher Scientific, Waltham, MA, USA) (with a BSA standard curve). Determination of the concentration of fibrils formed was carried out by subtracting the amount of β-amyloid1−42 peptide monomer in the supernatant from the initial amount used for fibrillation.
as §1, §2
Further procedures followed the same already described in Section 4.2.3.1 (See SI Figure S4).

[4] = target: T1, recombinant α-syn fibrils; assay: Competition binding assay against [^3H]PiB, α-syn fibrils; conditions: for Selectivity Aβ/α-syn / Selectivity tau/α-syn: ratio of Ki, [^3H]PiB was used
[5] = Solubility in the incubation medium of the binding assays; type: physicochemical; conditions: incubation buffer of the binding assays

Sequence of tau fibrils (P10636 2-758): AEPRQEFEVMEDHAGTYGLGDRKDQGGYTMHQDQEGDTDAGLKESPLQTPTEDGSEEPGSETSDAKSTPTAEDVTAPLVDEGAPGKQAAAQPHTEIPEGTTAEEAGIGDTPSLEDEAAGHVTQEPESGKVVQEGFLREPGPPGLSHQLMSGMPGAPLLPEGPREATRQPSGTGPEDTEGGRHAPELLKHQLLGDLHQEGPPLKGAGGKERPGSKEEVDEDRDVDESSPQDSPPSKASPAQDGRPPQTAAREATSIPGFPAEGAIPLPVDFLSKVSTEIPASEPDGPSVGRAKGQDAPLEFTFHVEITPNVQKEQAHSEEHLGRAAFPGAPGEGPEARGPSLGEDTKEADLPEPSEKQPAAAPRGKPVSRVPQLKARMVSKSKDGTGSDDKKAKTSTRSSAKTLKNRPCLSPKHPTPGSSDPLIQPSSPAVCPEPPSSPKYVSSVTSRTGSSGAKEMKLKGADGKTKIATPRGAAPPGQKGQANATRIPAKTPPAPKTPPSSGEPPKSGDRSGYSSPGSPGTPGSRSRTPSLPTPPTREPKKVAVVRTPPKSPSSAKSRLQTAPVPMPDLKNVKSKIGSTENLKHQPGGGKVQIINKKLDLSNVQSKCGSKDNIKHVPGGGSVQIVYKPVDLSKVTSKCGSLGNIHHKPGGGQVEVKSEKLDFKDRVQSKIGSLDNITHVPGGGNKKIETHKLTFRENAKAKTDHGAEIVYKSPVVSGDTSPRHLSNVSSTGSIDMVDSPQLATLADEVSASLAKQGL

Compound	Ki [1] [nM]	Selectivity Aβ/α-syn [2]	Selectivity tau/α-syn [2]	Ki [3] [nM]	Ki [4] [nM]	Selectivity Aβ/α-syn [4]	Selectivity tau/α-syn [4]	Ki [2] [nM]	solubility in the incubation medium [5]
COc1ccc(-c2csc(-c3nc(-c4cnc5c(c4)OCO5)cs3)n2)cc1F [d4, 6-(4′-(3-Fluoro-4-methoxyphenyl)-[2,2′-bithiazol]-4-yl)-[1,3]dioxolo[4,5-b]pyridine]	364	417.1	>1515.2	87.4	2.56	34.1	142.2	–	–
FCCOCCOCCOc1cnc(-c2csc(-c3nc(-c4ccc5c(c4)OCO5)cs3)n2)nc1 [f7, 4-(Benzo[d][1,3]dioxol-5-yl)-4′-(5-(2-(2-(2-fluoroethoxy)ethoxy)ethoxy)pyrimidin-2-yl)-2,2′-bithiazole]	242	–	–	76.4	1.17	65.3	206.9	1.51	–
FCCOCCOCCOc1ccc(-c2csc(-c3nc(-c4cnc5c(c4)OCO5)cs3)n2)cc1F [f10, 6-(4′-(3-Fluoro-4-(2-(2-(2-fluoroethoxy)ethoxy)ethoxy)phenyl)-[2,2′-bithiazol]-4-yl)-[1,3]dioxolo[4,5-b]pyridine]	615	–	–	37.3	0.93	40.1	–	1	–
FCCOCCOCCOc1ccc(-c2csc(-c3nc(-c4cnc5c(c4)OCO5)cs3)n2)cc1 [f12, 6-(4′-(4-(2-(2-(2-Fluoroethoxy)ethoxy)ethoxy)phenyl)-[2,2′-bithiazol]-4-yl)-[1,3]dioxolo[4,5-b]pyridine]	983	–	–	38.7	0.92	42.1	1068.5	–	–
FCCOCCOCCOc1cnc(-c2csc(-c3nc(-c4cnc5c(c4)OCO5)cs3)n2)nc1 [f13, 6-(4′-(5-(2-(2-(2-Fluoroethoxy)ethoxy)ethoxy)pyrimidin-2-yl)-[2,2′-bithiazol]-4-yl)-[1,3]dioxolo[4,5-b]pyridine]	120	–	–	46.6	0.38	122.6	315.8	–	–
COc1ccc(-c2csc(-c3nc(-c4ccc5c(c4)OCO5)cs3)n2)cc1OCCOCCOCCF [f14, 4-(Benzo[d][1,3]dioxol-5-yl)-4′-(3-(2-(2-(2-fluoroethoxy)ethoxy)ethoxy)-4-methoxyphenyl)-2,2′-bithiazole]	662	–	–	210	1.74	120.8	380.6	–	–
COc1cnc(-c2csc(-c3nc(-c4ccc5c(c4)OCO5)cs3)n2)nc1 [f15, 4-(Benzo[d][1,3]dioxol-5-yl)-4′-(5-methoxypyrimidin-2-yl)-2,2′-bithiazole]	707	–	–	59.3	2.45	24.2	288.6	–	–
COc1ccc(-c2csc(-c3nc(-c4cnc5c(c4)OCO5)cs3)n2)cc1 [f17, 6-(4′-(4-Methoxyphenyl)-[2,2′-bithiazol]-4-yl)-[1,3]dioxolo[4,5-b]pyridine]	513	–	–	167	1.78	94.1	288.0	–	–
COc1ccc(-c2csc(-c3nc(-c4cnc5c(c4)OCO5)cs3)n2)cc1OC [f18, 6-(4′-(3,4-Dimethoxyphenyl)-[2,2′-bithiazol]-4-yl)-[1,3]dioxolo[4,5-b]pyridine]	–	–	–	–	4.99	–	–	–	low solubility; also recorded: decreased solubility
COc1ccc(-c2csc(-c3nc(-c4cnc5c(c4)OCO5)cs3)n2)c(OC)c1 [f19, 6-(4′-(2,4-Dimethoxyphenyl)-[2,2′-bithiazol]-4-yl)-[1,3]dioxolo[4,5-b]pyridine]	671	–	–	149	1.35	110.1	497.3	–	–

The remaining molecules from weak to strong by Ki [4], led by results:

Ki [1] [nM]	Selectivity Aβ/α-syn [2]	Selectivity tau/α-syn [2]	Ki [3] [nM]	Ki [4] [nM]	Selectivity Aβ/α-syn [4]	Selectivity tau/α-syn [4]	Ki [2] [nM]	Compound	solubility in the incubation medium [5]
499	–	–	99.6	3.71	26.9	–	–	FCCOc1ccc(-c2csc(-c3nc(-c4ccc5c(c4)OCO5)cs3)n2)cc1 [f11, 4-(Benzo[d][1,3]dioxol-5-yl)-4′-(4-(2-fluoroethoxy)phenyl)-2,2′-bithiazole]	–
681	198.1	>819.7	147	2.32	63.4	293.4	–	COc1ccc(-c2csc(-c3nc(-c4ccc5c(c4)OCO5)cs3)n2)cc1F [d2, 4-(Benzo[d][1,3]dioxol-5-yl)-4′-(3-fluoro-4-methoxyphenyl)-2,2′-bithiazole]	–
–	–	–	–	2.3	–	–	–	FCCOCCOc1cnc(-c2csc(-c3nc(-c4cnc5c(c4)OCO5)cs3)n2)nc1 [f8, 6-(4′-(5-(2-(2-Fluoroethoxy)ethoxy)pyrimidin-2-yl)-[2,2′-bithiazol]-4-yl)-[1,3]dioxolo[4,5-b]pyridine]	low solubility; also recorded: decreased solubility
815	–	–	221	1.31	168.9	621.8	–	FCCOCCOc1ccc(-c2csc(-c3nc(-c4cnc5c(c4)OCO5)cs3)n2)c(OCCOCCF)c1 [f20, 6-(4′-(2,4-Bis(2-(2-fluoroethoxy)ethoxy)phenyl)-[2,2′-bithiazol]-4-yl)-[1,3]dioxolo[4,5-b]pyridine]	–
1130	–	–	47.6	0.96	49.6	1177.1	0.84	COc1ccc(-c2csc(-c3nc(-c4cnc5c(c4)OCO5)cs3)n2)cc1OCCOCCF [f9, 6-(4′-(3-(2-(2-Fluoroethoxy)ethoxy)-4-methoxyphenyl)-[2,2′-bithiazol]-4-yl)-[1,3]dioxolo [4,5-b]pyridine]	–

Reference: article PMC10671360, “In Silico and In Vitro Study towards the Rational Design of 4,4′-Disarylbisthiazoles as a Selective α-Synucleinopathy Biomarker” (International Journal of Molecular Sciences, 2023)
